# Source: US10448639B2, “Fungicidal pyrazoles” (FMC CORPORATION, priority 2009, dated 2019)
# Test system: Alternaria solani
# Assay: Test C: tomato early blight, preventive spray on tomato seedlings, visual disease rating
# Conditions: Alternaria solani, in Solanum lycopersicum, 168 h, read-out: Test C disease control rating
row,SMILES,pest or weed control at 200 µg/mL
1,"Cc1nn(C)c(Nc2c(F)cc(Br)cc2F)c1-c1ccc(F)cc1F [Compound 364, N-(4-bromo-2,6-difluorophenyl)-4-(2,4-difluorophenyl)-1,3-dimethyl-1H-pyrazol-5-amine]",97%

# Same assay, conditions: Alternaria solani, in Solanum lycopersicum, 168 h, read-out: Test C rating (% disease control)
row,SMILES,pest or weed control at 200 µg/mL
1,"Cc1nn(C)c(Nc2c(F)cccc2F)c1-c1ccc(F)cc1Cl [Compound 172, 4-(2-chloro-4-fluorophenyl)-N-(2,6-difluorophenyl)-1,3-dimethyl-1H-pyrazol-5-amine]",100%
2,"Cc1nn(C)c(Nc2c(F)cc(F)cc2F)c1-c1ccc(F)cc1F [Compound 41, 4-(2,4-difluorophenyl)-1,3-dimethyl-N-(2,4,6-trifluorophenyl)-1H-pyrazol-5-amine]",99%

# Same assay, conditions: tomato early blight, preventive spray; 100 = 100% disease control, 0 = no control
row,SMILES,Test C rating (% disease control)
1,COc1cc(F)c(-c2c(C)nn(C)c2Nc2ncc(F)cc2F)c(F)c1 [compound 128],100%
2,COc1cc(F)c(-c2c(C)nn(C)c2Nc2c(F)cc(C#N)cc2F)c(F)c1 [compound 82],100%
3,Cc1nn(C)c(Oc2ccc(F)cc2[N+](=O)[O-])c1-c1ccc(F)cc1Cl [compound 122],0%
4,Cc1nn(C)c(Nc2cc(Cl)ccc2F)c1-c1c(F)cc(C#N)cc1F [compound 142],13%

# Test system: Septoria tritici
# Assay: Test G: wheat leaf blotch, preventive spray on wheat seedlings, visual disease rating
# Conditions: Zymoseptoria tritici, in Triticum aestivum, 504 h, read-out: Test G disease control rating
row,SMILES,pest or weed control at 200 µg/mL
1,"Cc1nn(C)c(Nc2c(F)cc(Br)cc2F)c1-c1ccc(F)cc1F [Compound 364, N-(4-bromo-2,6-difluorophenyl)-4-(2,4-difluorophenyl)-1,3-dimethyl-1H-pyrazol-5-amine]",100%

# Same assay, conditions: Zymoseptoria tritici, in Triticum aestivum, 504 h, read-out: Test G rating (% disease control)
row,SMILES,pest or weed control at 200 µg/mL
1,"Cc1nn(C)c(Nc2c(F)cccc2F)c1-c1ccc(F)cc1Cl [Compound 172, 4-(2-chloro-4-fluorophenyl)-N-(2,6-difluorophenyl)-1,3-dimethyl-1H-pyrazol-5-amine]",100%
2,"Cc1nn(C)c(Nc2c(F)cc(F)cc2F)c1-c1ccc(F)cc1F [Compound 41, 4-(2,4-difluorophenyl)-1,3-dimethyl-N-(2,4,6-trifluorophenyl)-1H-pyrazol-5-amine]",94%

# Same assay, conditions: wheat leaf blotch, preventive spray; 100 = 100% disease control, 0 = no control
row,SMILES,Test G rating (% disease control)
1,COc1cc(F)c(-c2c(C)nn(C)c2Nc2ncc(F)cc2F)c(F)c1 [compound 128],99%
2,COc1cc(F)c(-c2c(C)nn(C)c2Nc2c(F)cc(C#N)cc2F)c(F)c1 [compound 82],99%
3,Cc1nn(C)c(Oc2ccc(F)cc2[N+](=O)[O-])c1-c1ccc(F)cc1Cl [compound 122],0%
4,Cc1nn(C)c(Nc2cc(Cl)ccc2F)c1-c1c(F)cc(C#N)cc1F [compound 142],99%

# Test system: Erysiphe graminis f sp. tritici
# Assay: Test J: wheat powdery mildew, preventive spray on wheat seedlings, visual disease rating
# Conditions: Blumeria graminis, in Triticum aestivum, 192 h, read-out: Test J disease control rating
row,SMILES,pest or weed control at 200 µg/mL
1,"Cc1nn(C)c(Nc2c(F)cc(Br)cc2F)c1-c1ccc(F)cc1F [Compound 364, N-(4-bromo-2,6-difluorophenyl)-4-(2,4-difluorophenyl)-1,3-dimethyl-1H-pyrazol-5-amine]",100%

# Same assay, conditions: Blumeria graminis, in Triticum aestivum, 192 h, read-out: Test J rating (% disease control)
row,SMILES,pest or weed control at 200 µg/mL
1,"Cc1nn(C)c(Nc2c(F)cccc2F)c1-c1ccc(F)cc1Cl [Compound 172, 4-(2-chloro-4-fluorophenyl)-N-(2,6-difluorophenyl)-1,3-dimethyl-1H-pyrazol-5-amine]",100%
2,"Cc1nn(C)c(Nc2c(F)cc(F)cc2F)c1-c1ccc(F)cc1F [Compound 41, 4-(2,4-difluorophenyl)-1,3-dimethyl-N-(2,4,6-trifluorophenyl)-1H-pyrazol-5-amine]",99%

# Same assay, conditions: wheat powdery mildew, preventive spray; 100 = 100% disease control, 0 = no control
row,SMILES,Test J rating (% disease control)
1,COc1cc(F)c(-c2c(C)nn(C)c2Nc2ncc(F)cc2F)c(F)c1 [compound 128],100%
2,COc1cc(F)c(-c2c(C)nn(C)c2Nc2c(F)cc(C#N)cc2F)c(F)c1 [compound 82],13%
3,Cc1nn(C)c(Oc2ccc(F)cc2[N+](=O)[O-])c1-c1ccc(F)cc1Cl [compound 122],0%
4,Cc1nn(C)c(Nc2cc(Cl)ccc2F)c1-c1c(F)cc(C#N)cc1F [compound 142],90%

# Test system: Septoria nodorum
# Assay: Test F: Septoria glume blotch, preventive spray on wheat seedlings, visual disease rating
# Conditions: Parastagonospora nodorum, in Triticum aestivum, 192 h, read-out: Test F disease control rating
row,SMILES,pest or weed control at 200 µg/mL
1,"Cc1nn(C)c(Nc2c(F)cc(Br)cc2F)c1-c1ccc(F)cc1F [Compound 364, N-(4-bromo-2,6-difluorophenyl)-4-(2,4-difluorophenyl)-1,3-dimethyl-1H-pyrazol-5-amine]",88%

# Same assay, conditions: Parastagonospora nodorum, in Triticum aestivum, 192 h, read-out: Test F rating (% disease control)
row,SMILES,pest or weed control at 200 µg/mL
1,"Cc1nn(C)c(Nc2c(F)cccc2F)c1-c1ccc(F)cc1Cl [Compound 172, 4-(2-chloro-4-fluorophenyl)-N-(2,6-difluorophenyl)-1,3-dimethyl-1H-pyrazol-5-amine]",87%
2,"Cc1nn(C)c(Nc2c(F)cc(F)cc2F)c1-c1ccc(F)cc1F [Compound 41, 4-(2,4-difluorophenyl)-1,3-dimethyl-N-(2,4,6-trifluorophenyl)-1H-pyrazol-5-amine]",90%

# Same assay, conditions: Septoria glume blotch on wheat, preventive spray; 100 = 100% disease control, 0 = no control
row,SMILES,Test F rating (% disease control)
1,COc1cc(F)c(-c2c(C)nn(C)c2Nc2ncc(F)cc2F)c(F)c1 [compound 128],97%
2,COc1cc(F)c(-c2c(C)nn(C)c2Nc2c(F)cc(C#N)cc2F)c(F)c1 [compound 82],40%
3,Cc1nn(C)c(Oc2ccc(F)cc2[N+](=O)[O-])c1-c1ccc(F)cc1Cl [compound 122],0%
4,Cc1nn(C)c(Nc2cc(Cl)ccc2F)c1-c1c(F)cc(C#N)cc1F [compound 142],20%

# Test system: Puccinia recondita f. sp. tritici
# Assay: Test H: wheat leaf rust, curative spray on inoculated wheat seedlings, visual disease rating
# Conditions: 144 h, read-out: Test H disease control rating
# Description: General protocol for preparing test suspensions for Tests A-J: the test compounds were first dissolved in acetone in an amount equal to 3% of the final volume and then suspended at the desired concentration (in ppm) in acetone and purified water (50/50 mix by volume) containing 250 ppm of the surfactant Trem® 014 (polyhydric alcohol esters). The resulting test suspensions were then used in Tests A-J. Spraying a 200 ppm test suspension to the point of run-off on the test plants was the equivalent of a rate of 500 g/ha. Unless otherwise indicated, the rating values indicate a 200 ppm test suspension was used. (An asterisk “*” next to the rating value indicates a 40 ppm test suspension was used.)
# Wheat seedlings were inoculated with a spore suspension of Puccinia recondita f. sp. tritici (the causal agent of wheat leaf rust) and incubated in a saturated atmosphere at 20° C. for 24 h, and then moved to a growth chamber at 20° C. for 2 days. At the end of this time the test suspension was sprayed to the point of run-off, and then the seedlings were moved to a growth chamber at 20° C. for 6 days after which time visual disease ratings were made.
row,SMILES,pest or weed control at 200 µg/mL
1,"Cc1nn(C)c(Nc2c(F)cc(Br)cc2F)c1-c1ccc(F)cc1F [Compound 364, N-(4-bromo-2,6-difluorophenyl)-4-(2,4-difluorophenyl)-1,3-dimethyl-1H-pyrazol-5-amine]",0%

# Same assay, conditions: 144 h, read-out: Test H rating (% disease control)
row,SMILES,pest or weed control at 200 µg/mL
1,"Cc1nn(C)c(Nc2c(F)cccc2F)c1-c1ccc(F)cc1Cl [Compound 172, 4-(2-chloro-4-fluorophenyl)-N-(2,6-difluorophenyl)-1,3-dimethyl-1H-pyrazol-5-amine]",0%
2,"Cc1nn(C)c(Nc2c(F)cc(F)cc2F)c1-c1ccc(F)cc1F [Compound 41, 4-(2,4-difluorophenyl)-1,3-dimethyl-N-(2,4,6-trifluorophenyl)-1H-pyrazol-5-amine]",0%

# Same assay, conditions: wheat leaf rust, curative spray; 100 = 100% disease control, 0 = no control
row,SMILES,Test H rating (% disease control)
1,COc1cc(F)c(-c2c(C)nn(C)c2Nc2ncc(F)cc2F)c(F)c1 [compound 128],66%
2,COc1cc(F)c(-c2c(C)nn(C)c2Nc2c(F)cc(C#N)cc2F)c(F)c1 [compound 82],0%
3,Cc1nn(C)c(Oc2ccc(F)cc2[N+](=O)[O-])c1-c1ccc(F)cc1Cl [compound 122],11%
4,Cc1nn(C)c(Nc2cc(Cl)ccc2F)c1-c1c(F)cc(C#N)cc1F [compound 142],0%

# Test system: Puccinia recondita f. sp. tritici
# Assay: Test I: wheat leaf rust, preventive spray on wheat seedlings, visual disease rating
# Conditions: 192 h, read-out: Test I disease control rating
row,SMILES,pest or weed control at 200 µg/mL
1,"Cc1nn(C)c(Nc2c(F)cc(Br)cc2F)c1-c1ccc(F)cc1F [Compound 364, N-(4-bromo-2,6-difluorophenyl)-4-(2,4-difluorophenyl)-1,3-dimethyl-1H-pyrazol-5-amine]",99%

# Same assay, conditions: 192 h, read-out: Test I rating (% disease control)
row,SMILES,pest or weed control at 200 µg/mL
1,"Cc1nn(C)c(Nc2c(F)cccc2F)c1-c1ccc(F)cc1Cl [Compound 172, 4-(2-chloro-4-fluorophenyl)-N-(2,6-difluorophenyl)-1,3-dimethyl-1H-pyrazol-5-amine]",99%
2,"Cc1nn(C)c(Nc2c(F)cc(F)cc2F)c1-c1ccc(F)cc1F [Compound 41, 4-(2,4-difluorophenyl)-1,3-dimethyl-N-(2,4,6-trifluorophenyl)-1H-pyrazol-5-amine]",100%

# Same assay, conditions: wheat leaf rust, preventive spray; 100 = 100% disease control, 0 = no control
row,SMILES,Test I rating (% disease control)
1,COc1cc(F)c(-c2c(C)nn(C)c2Nc2ncc(F)cc2F)c(F)c1 [compound 128],100%
2,COc1cc(F)c(-c2c(C)nn(C)c2Nc2c(F)cc(C#N)cc2F)c(F)c1 [compound 82],68%
3,Cc1nn(C)c(Oc2ccc(F)cc2[N+](=O)[O-])c1-c1ccc(F)cc1Cl [compound 122],0%
4,Cc1nn(C)c(Nc2cc(Cl)ccc2F)c1-c1c(F)cc(C#N)cc1F [compound 142],95%

# Test system: Botrytis cinerea
# Assay: Test B: tomato Botrytis, preventive spray on tomato seedlings, visual disease rating
# Conditions: Botrytis cinerea, in Solanum lycopersicum, 120 h, read-out: Test B disease control rating
row,SMILES,pest or weed control at 200 µg/mL
1,"Cc1nn(C)c(Nc2c(F)cc(Br)cc2F)c1-c1ccc(F)cc1F [Compound 364, N-(4-bromo-2,6-difluorophenyl)-4-(2,4-difluorophenyl)-1,3-dimethyl-1H-pyrazol-5-amine]",99%

# Same assay, conditions: Botrytis cinerea, in Solanum lycopersicum, 120 h, read-out: Test B rating (% disease control)
row,SMILES,pest or weed control at 200 µg/mL
1,"Cc1nn(C)c(Nc2c(F)cccc2F)c1-c1ccc(F)cc1Cl [Compound 172, 4-(2-chloro-4-fluorophenyl)-N-(2,6-difluorophenyl)-1,3-dimethyl-1H-pyrazol-5-amine]",100%
2,"Cc1nn(C)c(Nc2c(F)cc(F)cc2F)c1-c1ccc(F)cc1F [Compound 41, 4-(2,4-difluorophenyl)-1,3-dimethyl-N-(2,4,6-trifluorophenyl)-1H-pyrazol-5-amine]",100%

# Same assay, conditions: tomato Botrytis, preventive spray; 100 = 100% disease control, 0 = no control
row,SMILES,Test B rating (% disease control)
1,COc1cc(F)c(-c2c(C)nn(C)c2Nc2ncc(F)cc2F)c(F)c1 [compound 128],100%
2,COc1cc(F)c(-c2c(C)nn(C)c2Nc2c(F)cc(C#N)cc2F)c(F)c1 [compound 82],100%
3,Cc1nn(C)c(Oc2ccc(F)cc2[N+](=O)[O-])c1-c1ccc(F)cc1Cl [compound 122],0%
4,Cc1nn(C)c(Nc2cc(Cl)ccc2F)c1-c1c(F)cc(C#N)cc1F [compound 142],33%
